In one assay the test system is p70S6K. In words: Detection of mTOR signaling marker proteins: p70S6K phosphorylation (Western blot). The class given is cell-based, human. The settings on record: HeLa cells, 20 μM liensinine or 10 μM others (FIG. 5a). As for the experimental part:
HeLa cells treated with 20 μM of […], 10 μM of isoliensinine, 10 μM of dauricine, 10 μM of cepharanthine, 10 μM of hernandezine and 10 μM of thalidezine were harvested and lysed in RIPA buffer (Cell Signaling). The cell lysates were then resolved by SDS-PAGE. After electrophoresis, the proteins from SDS-PAGE were transferred to nitrocellulose membrane which was then blocked with 5% non-fat dried milk for 60 minutes. The membrane was then incubated with P-p70S6K, p70S6K, P-AMPK, AMPK and actin primary antibodies (1:1000) in TBST overnight at 4° C. respectively. After that, the membrane was further incubated with HRP-conjugated secondary antibodies for 60 minutes. Finally, protein bands were visualized by using the ECL Western Blotting Detection Reagents (Invitrogen).

The subject of a further assay is LC3-II. In words: Detection of autophagic marker protein LC3 conversion (Western blot). The class given is cell-based, human. The settings on record: HeLa cells, Western blot (FIG. 2b). How it is done: After treatments with […], isoliensinine, dauricine, cepharanthine, hernandezine and thalidezine, cells were harvested and lysed in RIPA buffer (Cell Signaling Technologies Inc., Beverly, Mass.). The cell lysates were then resolved by SDS-PAGE. After electrophoresis, the proteins from SDS-PAGE were transferred to nitrocellulose membrane which was then blocked with 5% non-fat dried milk for 60 minutes. The membrane was then incubated with LC3 primary antibodies (1:1000) in TBST overnight at 4° C. After that, the membrane was further incubated with HRP-conjugated secondary antibodies for 60 minutes. Finally, protein bands were visualized by using the ECL Western Blotting Detection Reagents (Invitrogen, Paisley, Scotland, UK).
A general note: Immunoblotting shows a protein as a band on a membrane.

Assay [1] deals with Atg7 wild-type mouse embryonic fibroblasts. In words: GFP-LC3 puncta in Atg7 wild-type MEFs. The class given is cell-based. To be noted: 20 μM liensinine or 10 μM others, 24 h (FIGS. 4a to 4c). How it is done: (§1) GFP-LC3 puncta formation was quantified as previously described. In brief, both Atg7 wild-type (Atg7-wt or Atg7+/+) and deficient (Atg7-/-) mouse embryonic fibroblasts (MEFs) were transfected with GFP-LC3 plasmid and then grown on coverslips in a 6-well plate. The cells were then treated with 20 μM of […], 10 μM of isoliensinine, 10 μM of dauricine, 10 μM of cepharanthine, hernandezine or 10 μM of thalidezine. for 24 h. The cells were then fixed in 4% paraformaldehyde for 20 minutes at room temperature and then rinsed with PBS. Slides were mounted with FluorSaveTM mounting media (Calbiochem, San Diego, Calif.) and examined by fluorescence microscopy. The number of GFP-positive cells with GFP-LC3 puncta formation was examined under the Nikon ECLIPSE 80i microscope. Representative images were captured with CCD digital camera Spot RT3TM (Diagnostic Instruments, Inc., Melville, N.Y.). To quantify for autophagy, the percentage of cells with punctate GFP-LC3 fluorescence was calculated by counting the number of the cells with punctate GFP-LC3 fluorescence in GFP-positive cells. A minimum of 150 cells from 3 randomly selected fields were scored.

In assay [2] the test system is a panel of cancer and normal cells. The assay can be described thus: GFP-LC3 puncta formation in a panel of cancer and normal cells. It counts as cell-based, human. The settings on record: fluorescent microscopy (FIG. 2c). How it is done:
GFP-LC3 puncta formation was quantified as previously described. In brief, GFP-LC3 transfected cells grown on coverslips in a 6-well plate were treated with or without 20 μM of […], 10 μM of isoliensinine, dauricine, cepharanthine, hernandezine or thalidezine for 4 hours, the cells were then fixed in 4% paraformaldehyde for 20 minutes at room temperature and then rinsed with PBS. Slides were mounted with FluorSaveTM mounting media (Calbiochem, San Diego, Calif.) and examined by fluorescence microscopy. The number of GFP-positive cells with GFP-LC3 puncta formation was examined under the Nikon ECLIPSE 80i microscope. Representative images were captured with CCD digital camera Spot RT3TM (Diagnostic Instruments, Inc., Melville, N.Y.). To quantify for autophagy, the percentage of cells with punctate GFP-LC3 fluorescence was calculated by counting the number of the cells with punctate GFP-LC3 fluorescence in GFP-positive cells. A minimum of 150 cells from 3 randomly selected fields was scored.

Assay [3] concerns EGFP-tagged mutant huntingtin (HDQ55, HDQ74). In words: Removal of mutant huntingtin by immunoblotting against EGFP. The class given is cell-based. To be noted: PC 12 cells, 5-10 μM, 24 h, immunoblotting against EGFP antibody (FIG. 8b). As for the experimental part: PC 12 cells were transfected transiently with EGFP-HDQ55/74 plasmids for 24 h using Lipofectamine Plus LTX reagent (Invitrogen) according to the manufacturer's protocol. The transfected cells were then treated with […], isoliensinine, dauricine, cepharanthine, hernandezine and thalidezine for 24 h. The removal of mutant huntingtin, ([…]74) was then quantitated by immunoblotting with antibody against EGFP or by immunocytochemistry under fluorescence microscopy.

Assay [4] concerns Atg7-knockout (Atg7-ko or Atg7−/−) mouse embryonic fibroblasts. The assay can be described thus: GFP-LC3 puncta in Atg7 deficient MEFs. It counts as cell-based. The settings on record: 20 μM liensinine or 10 μM others, 24 h (FIGS. 4a to 4c). How it is done:
as §1

On to `COc1ccc2cc1Oc1ccc(cc1)C[C@H]1c3cc(c(OC)cc3CCN1C)Oc1c(OC)c(OC)c(OC)c3c1[C@H](C2)N(C)CC3` [hernandezine], for which the “downstream p70S6K phosphorylation” value with p70S6K is recorded as “concomitant reduction”. In the assay with LC3-II, the “conversion of the autophagic marker LC3-II” value (“conversion” below) is recorded as “induced”. Also, the “GFP-LC3 puncta formation in wild type Atg7 cells” value in assay [1] is “induce”. For the same molecule, the “formation of GFP-LC3 puncta” value in assay [2] was “increased”. Besides, in assay [3], the “clearance of overexpressed EGFP-tagged mutant huntingtin (HDQ55, HDQ74)” value (“clearance” below) is reported as “enhanced”. In addition, the “GFP-LC3 puncta formation in Atg7-knockout cells” value in assay [4] was “not”.
Regarding `COc1cc2c(cc1OC)[C@@H](Cc1ccc(Oc3cc(C[C@@H]4c5cc(OC)c(OC)cc5CCN4C)ccc3O)cc1)N(C)CC2` [dauricine], in the assay with p70S6K, the “downstream p70S6K phosphorylation” value is given as “concomitant reduction”. The “conversion” value in the assay with LC3-II is given as “induced”. Further, the “GFP-LC3 puncta formation in wild type Atg7 cells” value in assay [1] was “induce”. The “formation of GFP-LC3 puncta” value in assay [2] is recorded as “increased”. For the same molecule, the “clearance” value in assay [3] was “enhanced”. Moreover, the “GFP-LC3 puncta formation in Atg7-knockout cells” value in assay [4] is given as “not”.
Consider thalidezine, for which the “downstream p70S6K phosphorylation” value with p70S6K is on record as “concomitant reduction”. The “conversion” value with LC3-II is recorded as “induced”. Also, the “GFP-LC3 puncta formation in wild type Atg7 cells” value in assay [1] is “induce”. The “formation of GFP-LC3 puncta” value in assay [2] is “increased”. For the same molecule, the “clearance” value in assay [3] is “enhanced”. For the same molecule, the “GFP-LC3 puncta formation in Atg7-knockout cells” value in assay [4] is given as “not”.
In the case of `COc1ccc(C[C@@H]2c3cc(Oc4cc(C[C@@H]5c6cc(O)c(OC)cc6CCN5C)ccc4O)c(OC)cc3CCN2C)cc1` [isoliensinine], the “downstream p70S6K phosphorylation” value in the assay with p70S6K is on record as “concomitant reduction”. Moreover, the “conversion” value with LC3-II is on record as “induced”. In addition, in assay [1], the “GFP-LC3 puncta formation in wild type Atg7 cells” value is “induce”. Besides, the “formation of GFP-LC3 puncta” value in assay [2] is listed as “increased”. For the same molecule, the “clearance” value in assay [3] is on record as “enhanced”. The “GFP-LC3 puncta formation in Atg7-knockout cells” value in assay [4] was “not”.
On to `COc1cc2c(cc1OC)[C@@H](Cc1ccc(O)c(Oc3cc4c(cc3OC)CCN(C)[C@@H]4Cc3ccc(O)cc3)c1)N(C)CC2` [liensinine], for which the “downstream p70S6K phosphorylation” value with p70S6K is “concomitant reduction”. Further, in the assay with LC3-II, the “conversion” value is listed as “induced”. In assay [1], the “GFP-LC3 puncta formation in wild type Atg7 cells” value is “induce”. In assay [2], the “formation of GFP-LC3 puncta” value is given as “increased”. The “clearance” value in assay [3] is given as “enhanced”. For the same molecule, the “GFP-LC3 puncta formation in Atg7-knockout cells” value in assay [4] is on record as “not”.
